Earlier results, collected in patent US20220354785A1, “ORAL LOZENGE PRODUCTS” (NICOVENTURES TRADING LIMITED, priority 2021, published 2022).

What was measured:
[1] = aqueous environment (e.g., saliva) / water
[2] = isomerizes to trans-bixin

Row | solubility in water [1] | chemical stability when isolated [2] | SMILES | logP value
1 |  |  | C=C(C)[C@@H]1CCC(C)=C[C@H]1c1c(O)cc(CCCCC)cc1O [CBD, cannabidiol] | about 6.5
2 | insoluble in water | chemically unstable when isolated | COC(=O)/C=C/C(C)=C\C=C\C(C)=C\C=C\C=C(C)\C=C\C=C(C)\C=C\C(=O)O [bixin] | 
